Values after ≈ are worked out from the molar mass of the structure shown.
What was measured:
A flavus P2 - 1045 [1] = experiment: MFC determination (subculture on Sabouraud Dextrose Agar); format: cell-based; details: read-out: Minimum Fungicidal Concentration (MFC)
Excerpt: (§1) The in-vitro evaluation of the antifungal activity of the compounds can be performed by determining the minimum inhibitory concentration (MIC) as shown in Table 1 which is the concentration of the test compound in Rosewell Park Memorial Institute (RPMI) 1640 liquid medium buffered with 3-(Morpholino)propanesulphonic acid (MOPS) to pH 7, at which there is significant inhibition of the particular fungi. In practice the National Committee for Clinical Laboratory Standard (NCCLS) M27A document for Candida and Cryptococcus and M38P for Aspergillus was used to determine the MIC against yeast and filamentous fungi with suitable modifications for dermatophytes to other filamentous fungi. Three quality control strains were included each time the MIC were determined and readings recorded only when the Quality Control results fell into the acceptable range. After MIC results had been recorded, 100 μl from each of the well showing no growth was spread over Sabouraud Dextrose Agar (SDA) to determine the minimum fungicidal concentration (MFC) as shown in Table 2.

Penicillium 2306 = experiment: as above; format: cell-based; details: read-out: Minimum Fungicidal Concentration (MFC)
Excerpt: as §1

Penicillium I - 1049 [2] = experiment: as above; format: cell-based; details: I1049, read-out: Minimum Fungicidal Concentration (MFC)
Excerpt: as §1

A flavus E4 - 1042 = experiment: as above; format: cell-based; details: read-out: Minimum Fungicidal Concentration (MFC)
Excerpt: as §1

Penicillium 2548 = experiment: as above; format: cell-based; details: read-out: Minimum Fungicidal Concentration (MFC)
Excerpt: as §1

C krusei 6258 = experiment: as above; format: cell-based; details: read-out: Minimum Fungicidal Concentration (MFC)
Excerpt: as §1

Fusarium (Ceylon) = experiment: as above; format: cell-based; details: read-out: Minimum Fungicidal Concentration (MFC)
Excerpt: as §1

Penicillium 191 [3] = experiment: as above; format: cell-based; details: read-out: Minimum Fungicidal Concentration (MFC)
Excerpt: as §1

Alternaria 1051 [4] = experiment: as above; format: cell-based; details: read-out: Minimum Fungicidal Concentration (MFC)
Excerpt: as §1

Penicillium 1641 = experiment: as above; format: cell-based; details: read-out: Minimum Fungicidal Concentration (MFC)
Excerpt: as §1

Fusarium 18270 = experiment: as above; format: cell-based; details: Fusarium, 18270, read-out: Minimum Fungicidal Concentration (MFC)
Excerpt: as §1

Fusarium 29600 = experiment: as above; format: cell-based; details: Fusarium, 29600, read-out: Minimum Fungicidal Concentration (MFC)
Excerpt: as §1

C parapsilosis 22019 = experiment: as above; format: cell-based; details: read-out: Minimum Fungicidal Concentration (MFC)
Excerpt: as §1

Rhizopus (Ceylon) = experiment: as above; format: cell-based; details: read-out: Minimum Fungicidal Concentration (MFC)
Excerpt: as §1

Rhizopus 1052 = experiment: as above; format: cell-based; details: read-out: Minimum Fungicidal Concentration (MFC)
Excerpt: as §1

Penicillium 31620 = experiment: as above; format: cell-based; details: read-out: Minimum Fungicidal Concentration (MFC)
Excerpt: as §1

A niger E5 - 1047 [5] = experiment: as above; format: cell-based; details: read-out: Minimum Fungicidal Concentration (MFC)
Excerpt: as §1

Mucor (Ceylon) = experiment: as above; format: cell-based; details: read-out: Minimum Fungicidal Concentration (MFC)
Excerpt: as §1

Penicillium H - 1048 = experiment: as above; format: cell-based; details: H1048, read-out: Minimum Fungicidal Concentration (MFC)
Excerpt: as §1

A flavus E3 - 1044 = experiment: as above; format: cell-based; details: read-out: Minimum Fungicidal Concentration (MFC)
Excerpt: as §1

A flavus P3 - 1041 = experiment: as above; format: cell-based; details: read-out: Minimum Fungicidal Concentration (MFC)
Excerpt: as §1

A niger P1 - 1046 [6] = experiment: as above; format: cell-based; details: read-out: Minimum Fungicidal Concentration (MFC)
Excerpt: as §1

C albicans Y01.19 = experiment: MIC determination (NCCLS broth method); format: cell-based, Candida albicans; details: Candida albicans, read-out: Minimum Inhibitory Concentration (MIC)
Excerpt: as §1

C albicans A-26 = experiment: MIC determination (NCCLS broth method); format: cell-based, Candida albicans; details: Candida albicans, A26, read-out: Minimum Inhibitory Concentration (MIC)
Excerpt: as §1

A flavus P2 - 1045 [7] = experiment: MIC determination (NCCLS broth method); format: cell-based; details: read-out: Minimum Inhibitory Concentration (MIC)
Procedure, shortened: (§2)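 Broth dilution per NCCLS M27A (yeasts) or M38P (filamentous fungi) in RPMI 1640 buffered with MOPS to pH 7; MIC taken as the concentration giving significant fungal inhibition, recorded only when three QC strains were within range. MFC determined by subculturing no-growth wells onto Sabouraud Dextrose Agar.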

Penicillium I - 1049 [8] = experiment: MIC determination (NCCLS broth method); format: cell-based; details: I1049, read-out: Minimum Inhibitory Concentration (MIC)
Procedure, shortened: as §2

A flavus E2 - 1043 = experiment: MIC determination (NCCLS broth method); format: cell-based; details: read-out: Minimum Inhibitory Concentration (MIC)
Procedure, shortened: as §2

Fusarium 2960C = experiment: MIC determination (NCCLS broth method); format: cell-based; details: read-out: Minimum Inhibitory Concentration (MIC)
Procedure, shortened: as §2

C krusei 766.1 = experiment: MIC determination (NCCLS broth method); format: cell-based; details: read-out: Minimum Inhibitory Concentration (MIC)
Procedure, shortened: as §2

Penicillium 191 [9] = experiment: MIC determination (NCCLS broth method); format: cell-based; details: read-out: Minimum Inhibitory Concentration (MIC)
Procedure, shortened: as §2

Alternaria 1051 [10] = experiment: MIC determination (NCCLS broth method); format: cell-based; details: read-out: Minimum Inhibitory Concentration (MIC)
Procedure, shortened: as §2

A niger E5 - 1047 [11] = experiment: MIC determination (NCCLS broth method); format: cell-based; details: read-out: Minimum Inhibitory Concentration (MIC)
Procedure, shortened: as §2

Fusarium 1827C = experiment: MIC determination (NCCLS broth method); format: cell-based; details: read-out: Minimum Inhibitory Concentration (MIC)
Procedure, shortened: as §2

A niger P1 - 1046 [12] = experiment: MIC determination (NCCLS broth method); format: cell-based; details: read-out: Minimum Inhibitory Concentration (MIC)
Procedure, shortened: as §2

Aspergillus fumigatous = experiment: In vivo anti-fungal activity, ED50 in systemically infected mice; design: species or system Swiss albino mice; details: mice infected i.v. with Aspergillus fumigatous, dosing for five days
Experimental: The in-vivo evaluation of the compound can be carried out at a series of dose levels by oral or I. V. injection to mice which are inoculated I.V. with the minimum lethal dose of Candida albicans, Cryptococcus neoformans or Aspergillus fumigatus by the tail vein. Activity is based on the survival of a treated group of mice after the death of an untreated group of mice. For Aspergillus and Cryptococcus infections, target organs were cultured after treatment to document the number of mice cured of the infection for further assessment of activity.
Method: Briefly, Swiss albino mice weighing 20±2 G were injected intravenously (tail vein) with sufficient fungal cells to kill 100% of the untreated animals for Aspergillus fumigatous strain used. In all cases each group comprised of six mice. Five does levels, utilizing doubling dilution range, were employed per determination ranging from 25 to 1.56 mg/kg BW. Dosing was carried out for five days starting after 30 minutes of infection. […] Treated animals were monitored twice daily for 14 days post infection at which time the experiment was terminated and ED50 was calculated.

Structure (SMILES)	MFC (A flavus P2 - 1045 [1]) [µg/mL]	MFC (Penicillium 2306) [µg/mL]	MFC (Penicillium I - 1049 [2]) [µg/mL]	MFC (A flavus E4 - 1042) [µg/mL]	MFC (Penicillium 2548) [µg/mL]	MFC (C krusei 6258) [µg/mL]	MFC (Fusarium (Ceylon)) [µg/mL]	MFC (Penicillium 191 [3]) [µg/mL]	MFC (Alternaria 1051 [4]) [µg/mL]	MFC (Penicillium 1641) [µg/mL]	MFC (Fusarium 18270) [µg/mL]	MFC (Fusarium 29600) [µg/mL]	MFC (C parapsilosis 22019) [µg/mL]	MFC (Rhizopus (Ceylon)) [µg/mL]	MFC (Rhizopus 1052) [µg/mL]	MFC (Penicillium 31620) [µg/mL]	MFC (A niger E5 - 1047 [5]) [µg/mL]	MFC (Mucor (Ceylon)) [µg/mL]	MFC (Penicillium H - 1048) [µg/mL]	MFC (A flavus E3 - 1044) [µg/mL]	other results
OC(Cn1cncn1)(Cn1cncn1)c1ccc(F)cc1F [Fluconazole]	> 128	> 128	> 128	> 128	> 128	128 (≈ 418 µM)	> 128	> 128	> 128	> 128	> 128	> 128	4 (≈ 13.1 µM)	> 128	> 128	> 128	> 128	> 128	> 128	> 128	MFC (A flavus P3 - 1041): > 128 µg/mL; MFC (A niger P1 - 1046 [6]): > 128 µg/mL; MIC (C albicans Y01.19): 8 µg/mL (≈ 26.1 µM); MIC (C albicans A-26): 0.5 µg/mL (≈ 1.63 µM); MIC (A flavus P2 - 1045 [7]): > 128 µg/mL; MIC (Penicillium I - 1049 [8]): > 128 µg/mL; MIC (A flavus E2 - 1043): > 128 µg/mL; MIC (Fusarium 2960C): > 128 µg/mL; MIC (C krusei 766.1): 128 µg/mL (≈ 418 µM); MIC (Penicillium 191 [9]): 64 µg/mL (≈ 209 µM); MIC (Alternaria 1051 [10]): > 128 µg/mL; MIC (A niger E5 - 1047 [11]): > 128 µg/mL; MIC (Fusarium 1827C): > 128 µg/mL; MIC (A niger P1 - 1046 [12]): 128 µg/mL (≈ 418 µM)
CCC(C)n1ncn(-c2ccc(N3CCN(c4ccc(OCC5COC(Cn6cncn6)(c6ccc(Cl)cc6Cl)O5)cc4)CC3)cc2)c1=O (stereo not shown) [Itraconazole]	0.25 (≈ 0.354 µM)	16 (≈ 22.7 µM)	> 128	0.125 (≈ 0.177 µM)	0.06 (≈ 0.085 µM)	64 (≈ 90.7 µM)	> 128	0.06 (≈ 0.085 µM)	32 (≈ 45.3 µM)	0.06 (≈ 0.085 µM)	128 (≈ 181 µM)	> 128	8 (≈ 11.3 µM)	128 (≈ 181 µM)	8 (≈ 11.3 µM)	1 (≈ 1.42 µM)	0.125 (≈ 0.177 µM)	> 128	> 128	0.03 (≈ 0.0425 µM)	MFC (A flavus P3 - 1041): 0.06 µg/mL (≈ 0.085 µM); MFC (A niger P1 - 1046 [6]): 0.25 µg/mL (≈ 0.354 µM); MIC (C albicans Y01.19): 0.25 µg/mL (≈ 0.354 µM); MIC (C albicans A-26): 0.016 µg/mL (≈ 0.0227 µM); ED50 (Aspergillus fumigatous; Day 7 post infection): 8.84 mg/kg body weight; ED50 (Aspergillus fumigatous; Day 14 post infection): 21.02 mg/kg body weight; MIC (A flavus P2 - 1045 [7]): 0.06 µg/mL (≈ 0.085 µM); MIC (Penicillium I - 1049 [8]): 16 µg/mL (≈ 22.7 µM); MIC (A flavus E2 - 1043): 0.03 µg/mL (≈ 0.0425 µM); MIC (Fusarium 2960C): 16 µg/mL (≈ 22.7 µM); MIC (C krusei 766.1): 0.5 µg/mL (≈ 0.709 µM); MIC (Penicillium 191 [9]): 0.06 µg/mL (≈ 0.085 µM); MIC (Alternaria 1051 [10]): 0.125 µg/mL (≈ 0.177 µM); MIC (A niger E5 - 1047 [11]): 0.03 µg/mL (≈ 0.0425 µM); MIC (Fusarium 1827C): 128 µg/mL (≈ 181 µM); MIC (A niger P1 - 1046 [12]): 0.125 µg/mL (≈ 0.177 µM)
